Experimental findings from US20260078130A1, “NAMPT MODULATORS, PREPARATIONS, AND USES THEREOF” (SIRONAX LTD., priority 2022, published 2026) are described below.

Like-named read-outs stand apart in the source and are kept apart here. Bounds are passed on as bounds.

This assay concerns the target T1, human enzyme NAMPT (full length) (Homo sapiens, UniProt P43490).
T1 construct: human enzyme NAMPT (full length)
The assay can be described thus: NMN fluorescence biochemical assay (stimulation of NMN synthesis by NAMPT). The note with it: for EC50: concentration giving half-maximal activation, read-out: Enzymatic EC50; for Enzymatic Emax: fold change of maximal activation compared to DMSO. As for the experimental part:
Certain compounds described herein were assayed for their ability to stimulate the synthesis of nicotinamide mononucleotide (NMN) by human enzyme NAMPT (full length). The enzymatic assay was performed in a 384-well plate using a TMD buffer (50 mM Tris-HCl, 10 mM MgCl2, 2 mM DTT, pH 7.5). Purified NAMPT (100 nM) was pre-incubated with 0.2 μL. DMSO solution of the test compound (with a series of concentrations) in 10 μL TMD buffer for 15 min at 37° C. The reaction was initiated by adding 10 μL solution of NAM (50 μM), PRPP (100 μM), and ATP (4 mM) in TMD buffer. After 1 h of incubation at 37 T, an aliquot (20 μL) of the NMN-containing sample was sequentially mixed with 5 μL of 20% acetophenone (in DMSO) and 5 μL of 2M KOH. The mixture was placed on ice for 10 min. Next, 22.5 μL of 100% formic acid was added to each sample, vortexed, and then incubated at 37° C. for 20 min. Fluorescence (Ex/Em=382/445 nm) was measured using an Envision plate reader. The potency measurements for the test compounds were quantified and represented as EC50 (concentration of a compound that gives half-maximal activation) and Emax (fold change of a compound's maximal activation compared to DMSO).

Where [1] appears, read: NMN synthesis by purified human NAMPT (100 nM).
Where [2] appears, read: NMN fluorescence assay, purified human NAMPT 100 nM.

T1 sequence (P43490 whole entry): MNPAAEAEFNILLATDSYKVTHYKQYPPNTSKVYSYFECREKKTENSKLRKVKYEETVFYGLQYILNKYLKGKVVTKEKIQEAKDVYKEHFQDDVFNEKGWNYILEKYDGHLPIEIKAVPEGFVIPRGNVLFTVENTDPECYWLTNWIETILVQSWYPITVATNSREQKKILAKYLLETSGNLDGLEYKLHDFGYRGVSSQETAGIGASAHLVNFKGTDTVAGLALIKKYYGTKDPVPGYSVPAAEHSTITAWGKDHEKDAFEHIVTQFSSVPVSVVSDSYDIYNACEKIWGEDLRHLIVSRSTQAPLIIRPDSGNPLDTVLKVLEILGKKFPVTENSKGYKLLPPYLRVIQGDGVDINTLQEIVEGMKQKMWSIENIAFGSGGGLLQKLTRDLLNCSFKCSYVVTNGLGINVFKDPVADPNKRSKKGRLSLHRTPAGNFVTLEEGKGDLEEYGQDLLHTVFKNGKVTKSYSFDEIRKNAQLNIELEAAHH

With `Cn1cc(Cl)c(CC2c3ccccc3C(=O)N2Cc2ccc3[nH]nnc3c2)n1` (centres unmarked) [Compound 250, 2-((1H-benzo[d][1,2,3]triazol-5-yl)methyl)-3-((4-chloro-1-methyl-1H-pyrazol-3-yl)methyl) isoindolin-1-one], the “Enzymatic Emax” value is “B (3≥B>2)”. In addition, under setting [1], the EC50 is less than 0.5 µM.
Regarding `N#Cc1nc2cc(CN3C(=O)c4ccccc4C3Cc3ncccc3Br)ccc2[nH]1` (centres unmarked) [Compound 366, 5-((1-((3-bromopyridin-2-yl)methyl)-3-oxoisoindolin-2-yl)methyl)-1H-benzo[d]imidazole-2-carbonitrile], the “Enzymatic Emax” value is given as “C (2≥C)”. Also, under setting [2], the EC50 lay in the range of 0.5 to 5 µM.
Regarding `O=C1c2ccccc2C(Cc2ccc3ncoc3c2)N1Cc1ccc2[nH]c(=O)oc2c1` (centres unmarked) [Compound 216, 6-((1-(benzo[d]oxazol-6-ylmethyl)-3-oxoisoindolin-2-yl)methyl)benzo[d]oxazol-2(3H)-one], the “Enzymatic Emax” value is reported as “A (A>3)”. Under setting [1], the EC50 was in the range of 0.5 to 5 µM.
Take `O=C1c2ccccc2CCN1Cc1ccc2[nH]c(=O)oc2c1` [Compound 8, 6-((1-oxo-3,4-dihydroisoquinolin-2(1H)-yl)methyl)benzo[d]oxazol-2(3H)-one]: the “Enzymatic Emax” value is on record as “B (3≥B>2)”. Further, the EC50 under setting [1] was no less than 5 µM.
Turning to `Cn1ncc(Cl)c1CC1(C)c2ccccc2C(=O)N1CC1CC2(CNC(=O)O2)C1` (centres unmarked) [Compound 445, 2-((1-((4-chloro-1-methyl-1H-pyrazol-5-yl)methyl)-1-methyl-3-oxoisoindolin-2-yl)methyl)-5-oxa-7-azaspiro[3.4]octan-6-one], the “Enzymatic Emax” value was “B (3≥B>2)”. Moreover, the EC50 under setting [2] was no less than 5 µM.
Turning to `Cc1n[nH]cc1/C=C(/F)CN1C(=O)c2ccccc2C1Cc1c(Cl)cnn1C` (centres unmarked) [Compound 504, (E)-3-((4-chloro-1-methyl-1H-pyrazol-5-yl)methyl)-2-(2-fluoro-3-(3-methyl-1H-pyrazol-4-yl)allyl)isoindolin-1-one], the “Enzymatic Emax” value is “B (3≥B>2)”. The EC50 under setting [2] fell in the range of 0.5 to 5 µM.
`Cn1ncc(Cl)c1CC1c2cc(C3CNC3)ccc2C(=O)N1Cc1ccc2[nH]nnc2c1` (centres unmarked) [Compound 383, 2-((1H-benzo[d][1,2,3]triazol-5-yl)methyl)-5-(azetidin-3-yl)-3-((4-chloro-1-methyl-1H-pyrazol-5-yl)methyl)isoindolin-1-one]: the “Enzymatic Emax” value is “B (3≥B>2)”. Besides, the EC50 under setting [2] is less than 0.5 µM.
Turning to `CN(C)c1ccc2c(c1)C(Cc1c(Cl)cnn1C)N(CC1CC3(CNC(=O)O3)C1)C2=O` (centres unmarked) [Compound 498, 2-((3-((4-chloro-1-methyl-1H-pyrazol-5-yl)methyl)-5-(dimethylamino)-1-oxoisoindolin-2-yl)methyl)-5-oxa-7-azaspiro[3.4]octan-6-one], the “Enzymatic Emax” value is recorded as “B (3≥B>2)”. Also, the EC50 under setting [2] was less than 0.5 µM.
Consider `Nc1ccccc1CC1c2ccccc2C(=O)N1Cc1ccc2[nH]c(=O)oc2c1` (centres unmarked) [Compound 208, 6-((1-(2-aminobenzyl)-3-oxoisoindolin-2-yl)methyl)benzo[d]oxazol-2(3H)-one], for which the “Enzymatic Emax” value is given as “B (3≥B>2)”. In addition, the EC50 under setting [1] lay within 0.5 to 5 µM.
Turning to `O=C1N[C@H]2CCC(CN3C(=O)c4ccccc4C3Cc3ncccc3Br)C[C@@H]2O1` (relative stereo) [Compound 466, trans-6-((1-((3-bromopyridin-2-yl)methyl)-3-oxoisoindolin-2-yl)methyl)hexahydrobenzo[d]oxazol-2(3H)-one], the “Enzymatic Emax” value is reported as “C (2≥C)”. Besides, the EC50 under setting [2] was no less than 5 µM.
Take `Cn1cnc(CC2c3ccccc3C(=O)N2Cc2ccc3[nH]c(=O)oc3c2)c1Cl` (centres unmarked) [Compound 249, 6-((1-((5-chloro-1-methyl-1H-imidazol-4-yl)methyl)-3-oxoisoindolin-2-yl)methyl)benzo[d]oxazol-2(3H)-one]: the “Enzymatic Emax” value was “A (A>3)”. Besides, the EC50 under setting [1] was less than 0.5 µM.
Consider `Nn1c(=O)oc2cc(CN3C(=O)c4ccccc4C3Cc3ncccc3Br)ccc21` (centres unmarked) [Compound 256, 3-Amino-6-((1-((3-bromopyridin-2-yl)methyl)-3-oxoisoindolin-2-yl)methyl)benzo[d]oxazol-2(3H)-one], for which the “Enzymatic Emax” value was “A (A>3)”. Further, the concentration giving a half-maximal response (EC50) under setting [1] was no less than 5 µM.
For `Cn1ncc(Cl)c1CC1c2ccccc2C(=O)N1Cc1ccccc1` (centres unmarked) [Compound 502, 2-benzyl-3-((4-chloro-1-methyl-1H-pyrazol-5-yl)methyl)isoindolin-1-one], the “Enzymatic Emax” value was “C (2≥C)”. In addition, the EC50 under setting [2] is no less than 5 µM.
For the molecule `Cc1cnn(C)c1CC1c2ccccc2C(=O)N1Cc1ccc2[nH]nnc2c1` (centres unmarked) [Compound 365, 2-((1H-benzo[d][1,2,3]triazol-5-yl)methyl)-3-((1,4-dimethyl-1H-pyrazol-5-yl)methyl)isoindolin-1-one], the “Enzymatic Emax” value was “B (3≥B>2)”. Under setting [2], the EC50 is 0.5 to 5 µM.
On the same counts, the results for `Cn1ncc(Cl)c1CC1c2ccccc2C(=O)N1Cc1ccc(Br)cc1` (centres unmarked) [Compound 575, 2-(4-bromobenzyl)-3-((4-chloro-1-methyl-1H-pyrazol-5-yl)methyl)isoindolin-1-one] are “C (2≥C)” and 0.5 to 5 µM.
As for `Cc1ccnc(Cl)c1CC1c2ccccc2C(=O)N1Cc1ccc2[nH]c(=O)oc2c1` (centres unmarked) [Compound 263, 6-((1-((2-chloro-4-methylpyridin-3-yl)methyl)-3-oxoisoindolin-2-yl)methyl)benzo[d]oxazol-2(3H)-one], the “Enzymatic Emax” value is listed as “A (A>3)”. Also, under setting [1], the EC50 is less than 0.5 µM.
On to `O=C1c2ccccc2C(Cc2ncccc2Br)N1Cc1cnc2[nH]c(=O)oc2c1` (centres unmarked) [Compound 222, 6-((1-((3-bromopyridin-2-yl)methyl)-3-oxoisoindolin-2-yl)methyl)oxazolo[4,5-b]pyridin-2(3H)-one], for which the “Enzymatic Emax” value was “B (3≥B>2)”. Further, under setting [1], the EC50 is no less than 5 µM.
With `COc1cccc(CC2c3ccccc3C(=O)N2Cc2ccc3[nH]c(=O)oc3c2)c1` (centres unmarked) [Compound 180, 6-((1-(3-methoxybenzyl)-3-oxoisoindolin-2-yl)methyl)benzo[d]oxazol-2(3H)-one], the “Enzymatic Emax” value is recorded as “B (3≥B>2)”. In addition, the EC50 under setting [1] lay within 0.5 to 5 µM.
For `COc1c(F)cc(CN2C(=O)c3ccccc3C2Cc2c(Cl)cnn2C)cc1F` (centres unmarked) [Compound 560, 3-((4-chloro-1-methyl-1H-pyrazol-5-yl)methyl)-2-(3,5-difluoro-4-methoxybenzyl)isoindolin-1-one], the “Enzymatic Emax” value was “B (3≥B>2)”. Also, the EC50 under setting [2] was no less than 5 µM.
Turning to `Cn1ncc(Cl)c1CC1c2ccccc2C(=O)N1C[C@]1(F)C[C@]2(CNC(=O)O2)C1` (some centres unmarked) [Compound 507, (2s,4s)-2-((1-((4-chloro-1-methyl-1H-pyrazol-5-yl)methyl)-3-oxoisoindolin-2-yl)methyl)-2-fluoro-5-oxa-7-azaspiro[3.4]octan-6-one], the “Enzymatic Emax” value is reported as “B (3≥B>2)”. The concentration for a half-maximal effect (EC50) under setting [2] is no less than 5 µM.
`O=C1c2ccccc2C(Cc2ncccc2Br)N1Cc1ccc2[nH]c(=S)oc2c1` (centres unmarked) [Compound 287, 3-((3-bromopyridin-2-yl)methyl)-2-((2-thioxo-2,3-dihydrobenzo[d]oxazol-6-yl)methyl) isoindolin-1-one]: the “Enzymatic Emax” value is “B (3≥B>2)”. Also, under setting [1], the EC50 was in the range of 0.5 to 5 µM.
`Cn1ncc(Cl)c1CC1c2ccccc2C(=O)N1Cc1ccc(F)cc1` (centres unmarked) [Compound 572, 3-((4-chloro-1-methyl-1H-pyrazol-5-yl)methyl)-2-(4-fluorobenzyl)isoindolin-1-one]: the “Enzymatic Emax” value is given as “C (2≥C)”. The EC50 under setting [2] is no less than 5 µM.
Take `O=C1c2ccccc2C(Cc2ncccc2Br)N1Cc1ccc(O)cn1` (centres unmarked) [Compound 267, 3-((3-bromopyridin-2-yl)methyl)-2-((5-hydroxypyridin-2-yl)methyl)isoindolin-1-one]: the “Enzymatic Emax” value is “A (A>3)”. Further, the EC50 under setting [1] lay within 0.5 to 5 µM.
For `Cc1cc(CC2c3ccccc3C(=O)N2Cc2ccc3[nH]c(=O)oc3c2)ccn1` (centres unmarked) [Compound 179, 6-((1-((2-methylpyridin-4-yl)methyl)-3-oxoisoindolin-2-yl)methyl)benzo[d]oxazol-2(3H)-one], the “Enzymatic Emax” value is “B (3≥B>2)”. Under setting [1], the EC50 was no less than 5 µM.
Turning to `O=C1c2sc(Br)nc2CN1Cc1ccc(O)cc1` [Compound 447, 2-bromo-5-(4-hydroxybenzyl)-4,5-dihydro-6H-pyrrolo[3,4-d]thiazol-6-one], the “Enzymatic Emax” value is given as “B (3≥B>2)”. Further, the EC50 under setting [2] is no less than 5 µM.
On to `O=C1c2ccccc2C(Cc2cccc3ncoc23)N1Cc1ccc2[nH]c(=O)oc2c1` (centres unmarked) [Compound 218, 6-((1-(benzo[d]oxazol-7-ylmethyl)-3-oxoisoindolin-2-yl)methyl)benzo[d]oxazol-2(3H)-one], for which the “Enzymatic Emax” value is recorded as “A (A>3)”. In addition, the EC50 under setting [1] was 0.5 to 5 µM.
`O=C1Cc2ccccc2CN1Cc1ccc(O)cc1` [Compound 10, 2-(4-hydroxybenzyl)-1,4-dihydroisoquinolin-3(2H)-one]: the “Enzymatic Emax” value is reported as “B (3≥B>2)”. In addition, the EC50 under setting [1] is no less than 5 µM.
Consider `Cc1cccc2c1C(C)N(Cc1ccc3[nH]c(=O)oc3c1)C2=O` (centres unmarked) [Compound 246, 6-((3,4-dimethyl-1-oxoisoindolin-2-yl)methyl)benzo[d]oxazol-2(3H)-one], for which the “Enzymatic Emax” value is recorded as “B (3≥B>2)”. The EC50 under setting [1] is no less than 5 µM.

For orientation: EC50 means the midpoint of the concentration-response curve.
